# Reference: patent US9486519B2, “Use of FLT3 ligand for enhancing immune responses in RNA immunization” (BioNTech AG, priority 2008, dated 2016)
# B1: Flt3L (Humanzyme): commercially available Flt3 preparation expressed in human HEK293 cells (Humanzyme) (protein, UniProt P49771 27-235, looked up)
# Fms-related tyrosine kinase 3 …: TQDCSFQHSPISSDFAVKIRELSDYLLQDYPVTVASNLQDEELCGGLWRLVLAQRWMERLKTVAGSKMQGLLERVNTEIHFVTKCAFQPPPSCLRFVQTNISRLLQETSEQLVALKPWITRQNFSRCLELQCQPDSSTLPPPWSPRPLEATAPTAPQPPLLLLLLLPVGLLLLAAAWCLHWQRTRRRTPRPGEQVPPVPSPQDLLLVEH
# B2: Flt3L (Peprotech): commercially available Flt3 preparation recombinantly expressed in bacteria (Peprotech) (protein, UniProt P49771 27-235, looked up)
# Fms-related tyrosine kinase 3 …: TQDCSFQHSPISSDFAVKIRELSDYLLQDYPVTVASNLQDEELCGGLWRLVLAQRWMERLKTVAGSKMQGLLERVNTEIHFVTKCAFQPPPSCLRFVQTNISRLLQETSEQLVALKPWITRQNFSRCLELQCQPDSSTLPPPWSPRPLEATAPTAPQPPLLLLLLLPVGLLLLAAAWCLHWQRTRRRTPRPGEQVPPVPSPQDLLLVEH
# B3: Flt3L without IgG4 fusion: Flt3L without IgG4 fusion, published half-life value (Robinson et al., 2003) (protein, UniProt P49771 27-235, looked up)
# Fms-related tyrosine kinase 3 …: TQDCSFQHSPISSDFAVKIRELSDYLLQDYPVTVASNLQDEELCGGLWRLVLAQRWMERLKTVAGSKMQGLLERVNTEIHFVTKCAFQPPPSCLRFVQTNISRLLQETSEQLVALKPWITRQNFSRCLELQCQPDSSTLPPPWSPRPLEATAPTAPQPPLLLLLLLPVGLLLLAAAWCLHWQRTRRRTPRPGEQVPPVPSPQDLLLVEH
# Tests used:
# [1] = test system: human iDCs; experiment: RNA uptake by human iDCs pretreated with macropinocytosis inhibitors, luciferase test; type: cell-based; settings: 15 min luciferase-RNA or Cy3-RNA
# Procedure: (b-c) Human iDCs were pretreated with various inhibitors (dimethyl amiloride, cytochalasin D, LY294002, Rottlerin) and then coincubated for 15 min with luciferase-RNA or Cy3-RNA. After 24 h the luciferase signal was quantified in a standard luminescence test.
# To verify whether the macropinocytosis constitutively active in iDCs is relevant for the uptake of naked RNA, human iDCs were pretreated with various inhibitors (dimethyl amiloride, cytochalasin D, LY294002, Rottlerin) and then coincubated for 15 min with luciferase-RNA or Cy3-RNA. After culture for a further 22 h, RNA uptake was quantified in a luciferase test. The mean+SEM is shown. The iDCs coincubated with Cy3-RNA (red) were fixed with paraformaldehyde and counterstained (Hoechst 33342, blue). […] FIG. 6(b-c).
# [2] = test system: macropinocytosis; experiment: Intranodal RNA immunization after Rottlerin pretreatment of lymph nodes, tetramer measurement; type: in vivo, C57Bl/6 mice; settings: SIINFEKL-coding RNA 20 μg intranodally d0 and d3; lymph nodes pretreated
# Procedure: (e) C57Bl/6 mice (n=3) were immunized intranodally on d0 and d3 with […]-coding RNA (20 μg). On both days the lymph nodes were pretreated with Rottlerin as described above. On day 8 the success of immunization was quantified by tetramer measurement in the peripheral blood. The success of intranodal RNA immunization correlated directly with the ability of cells to take up RNA by macropinocytosis.
# To verify whether the in vivo inhibition of macropinocytosis has an effect on the efficiency of T cell priming after intranodal RNA immunization, C57/B16 mice (n=3) were immunized intranodally on d0 and d3 with […]-coding RNA (20 μg). On both days the lymph nodes were pretreated with Rottlerin as described above. The mean+SEM of the frequency of CD8+ antigen-specific T lymphocytes is shown. […] FIG. 6(e).
# The main uptake mechanism of RNA uptake is macropinocytosis.
# [3] = test system: macropinocytosis; experiment: RNA uptake in lymph nodes after in vivo Rottlerin pretreatment, in-vivo bioluminescence; set-up: species or system C57Bl/6 mice; settings: inguinal lymph nodes pretreated with 10 μM; luciferase-RNA 10 μg intranodally; 24 h
# Procedure: To clarify whether macropinocytosis is also the uptake mechanism relevant in vivo for RNA in the lymph node, the inguinal lymph nodes of C57/B16 mice were pretreated with Rottlerin (n=4, 10 μM) and then luciferase-RNA (10 μg) was injected intranodally. After 24 h, the in-vivo bioluminescence signal was measured.
# [4] = test system: RNA uptake in the lymph nodes; experiment: Effect of Poly I:C on RNA uptake in lymph nodes, in-vivo bioluminescence; set-up: species or system C57Bl/6 mice; settings: 20 μg s.c.; luciferase-RNA intranodally after 2 or 24 h
# Procedure: (e) Effect of Poly I:C on RNA uptake. C57Bl/6 mice (n=4) were injected s.c. with PBS or Poly I:C (20 μg) and after 2 or 24 h, luciferase-RNA was applied intranodally. After 24 h the luciferase signal was quantified in a standard bioluminescence test.
# In order to verify to what extent maturing adjuvants can also lead in vivo to a reduction of RNA uptake, we tested the effect of Poly I:C on RNA uptake; cf. FIG. 7(e). For this, C57/Bl6 mice (n=4) were injected s.c. with PBS or Poly I:C (20 μg) and after 2 or 24 h, luciferase-RNA was applied intranodally. The in-vivo bioluminescence was measured after a further 24 h. The mean+SEM is shown.
# [5] = test system: cell populations of the murine lymph node; experiment: Effects of different Flt3L on the cellular composition in lymph nodes; type: in vivo, C57BL/6 mice; settings: 0.4 mol i.p. day 0; lymph nodes day 10
# Source text: On day 10 the lymph nodes of the mice were removed and characterized by flow cytometry. Dendritic cells (DCs (marker: CD11c^+/NK1.1^−)), CD4^+ helper T cells (marker: CD3^+/CD4^+/CD8^−/NK1.1^−), CD8^+ T cells (marker: CD3^+/CD8^+/CD4^−/NK1.1^−), CD19^+ B cells (marker: CD19^+/CD3^−/NK1.1^−).
# In this experiment Flt3 ligand (Flt3-IgG4) was compared with commercially available Flt3 preparations with respect to the effect on different cell populations of the murine lymph node. A product recombinantly expressed in bacteria (Peprotech Flt3L; Peprotech, Hamburg, Germany) and a product expressed in human HEK293 cells (Humanzyme Flt3L, Humanzyme; Chicago Ill., U.S.A.) were used as commercially available Flt3 preparations. Human IgG4 (Sigma-Aldrich, Deisenhofen, Germany) served as control.
# On day 10 both inguinal lymph nodes of the mice were removed, the cell count determined by means of a Neubauer chamber and the cell populations were characterized by flow cytometry.
# [6] = Robinson et al., 2003; cited from earlier work
molecule,measurement,setting,value
CC(=O)c1c(O)c(C)c(O)c(Cc2c(O)c3c(c(C(=O)/C=C/c4ccccc4)c2O)OC(C)(C)C=C3)c1O [Rottlerin],inhibition of RNA uptake,[1],more than 90%
same,vaccine action after inhibition of macropinocytosis,[2],almost complete loss of vaccine action
same,RNA uptake in the lymph node,[3],drastically reduced
Poly I:C,RNA uptake (in-vivo bioluminescence),[4],sharp reduction in RNA uptake
B1,expansion of dendritic cells,[5],strong similarity
B2,expansion of dendritic cells,[5],only slightly potent
B3,published value for the half-life,[6],5 h
